Data on 31 molecules can be found in US11192891B2, “Diazaspiro ROCK inhibitors” (BRISTOL-MYERS SQUIBB COMPANY, priority 2017, dated 2021).

Usually IC50 stands for the midpoint of a concentration-inhibition curve.

ROCK2, sequence (O75116 whole entry, species assumed): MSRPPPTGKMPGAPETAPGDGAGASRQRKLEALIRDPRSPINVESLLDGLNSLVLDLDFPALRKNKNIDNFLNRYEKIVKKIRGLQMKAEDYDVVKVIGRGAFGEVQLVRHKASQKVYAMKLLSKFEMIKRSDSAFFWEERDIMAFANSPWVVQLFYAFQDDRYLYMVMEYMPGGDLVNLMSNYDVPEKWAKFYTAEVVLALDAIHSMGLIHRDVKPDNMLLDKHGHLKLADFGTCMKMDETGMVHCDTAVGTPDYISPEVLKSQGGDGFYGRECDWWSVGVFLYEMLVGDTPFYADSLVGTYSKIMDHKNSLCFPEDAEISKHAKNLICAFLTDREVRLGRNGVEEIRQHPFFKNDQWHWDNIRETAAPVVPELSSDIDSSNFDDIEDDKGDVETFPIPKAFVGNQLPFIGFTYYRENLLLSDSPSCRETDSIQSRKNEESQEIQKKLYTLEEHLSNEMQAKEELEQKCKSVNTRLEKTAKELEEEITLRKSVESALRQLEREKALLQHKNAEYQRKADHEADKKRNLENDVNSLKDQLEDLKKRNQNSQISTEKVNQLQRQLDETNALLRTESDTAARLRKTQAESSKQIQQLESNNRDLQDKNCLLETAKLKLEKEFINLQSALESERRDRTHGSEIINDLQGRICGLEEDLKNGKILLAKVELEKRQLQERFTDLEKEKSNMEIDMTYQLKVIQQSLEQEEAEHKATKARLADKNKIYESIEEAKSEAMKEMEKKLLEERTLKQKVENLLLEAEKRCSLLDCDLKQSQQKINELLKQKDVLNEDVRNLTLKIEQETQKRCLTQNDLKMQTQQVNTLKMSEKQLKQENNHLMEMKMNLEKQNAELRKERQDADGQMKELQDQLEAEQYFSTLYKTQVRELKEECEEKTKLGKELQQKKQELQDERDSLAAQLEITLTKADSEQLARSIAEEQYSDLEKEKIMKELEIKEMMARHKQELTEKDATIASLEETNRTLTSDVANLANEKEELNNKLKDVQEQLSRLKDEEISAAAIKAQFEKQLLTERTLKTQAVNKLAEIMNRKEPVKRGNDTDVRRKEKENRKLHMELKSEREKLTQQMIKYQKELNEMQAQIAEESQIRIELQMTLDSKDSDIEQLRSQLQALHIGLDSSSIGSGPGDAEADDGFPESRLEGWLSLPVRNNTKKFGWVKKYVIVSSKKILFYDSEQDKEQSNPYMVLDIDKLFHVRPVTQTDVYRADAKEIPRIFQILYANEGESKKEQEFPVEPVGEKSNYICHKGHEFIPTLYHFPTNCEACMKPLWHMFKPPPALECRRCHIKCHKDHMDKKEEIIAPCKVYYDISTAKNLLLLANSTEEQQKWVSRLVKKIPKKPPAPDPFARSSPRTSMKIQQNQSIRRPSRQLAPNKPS

The assay concerns the target ROCK2 (Homo sapiens, UniProt O75116). Description: ROCK kinase inhibition assay, FITC peptide substrate, LABCHIP 3000 readout. In kind it is biochemical. Particulars: 5 μM ATP, 1.5 μM peptide substrate. The method in brief: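 Tested across a concentration range, with percent inhibition of kinase activity derived per concentration. Peptide phosphorylation, initiated by adding the Rho kinase variant (final DMSO <2%), was quenched with EDTA and substrate/product resolved by mobility shift.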
As for `COc1cnc(C(=O)N2CCC3(CC2)CCN(c2ccc(-c4cn[nH]c4)c(OC)c2)C3=O)cn1` [Example 101, 2-[3-methoxy-4-(1H-pyrazol-4-yl)phenyl]-8-(5-methoxypyrazine-2-carbonyl)-2,8-diazaspiro[4.5]decan-1-one], the IC50 turned out to be 86 nM.

With `COc1cc(N2CCC3(CCN(C(=O)C4Cc5ccccc5O4)CC3)C2=O)ccc1-c1cn[nH]c1` (stereo not shown) [Example 102, 8-(2,3-dihydro-1-benzofuran-2-carbonyl)-2-[3-methoxy-4-(1H-pyrazol-4-yl)phenyl]-2,8-diazaspiro[4.5]decan-1-one], the IC50 was 1970 nM.

The molecule `COc1cc(N2CCC3(CCN(C(=O)c4ccc(F)c(C)c4)CC3)C2=O)ccc1-c1cn[nH]c1` [Example 103, 8-(4-fluoro-3-methylbenzoyl)-2-[3-methoxy-4-(1H-pyrazol-4-yl)phenyl]-2,8-diazaspiro[4.5]decan-1-one] registered an IC50 of 96 nM.

In the case of `COc1cc(N2CCC3(CCN(C(=O)c4cc(C)on4)CC3)C2=O)ccc1-c1cn[nH]c1` [Example 104, 2-[3-methoxy-4-(1H-pyrazol-4-yl)phenyl]-8-(5-methyl-1,2-oxazole-3-carbonyl)-2,8-diazaspiro[4.5]decan-1-one], the midpoint of inhibition, the IC50, lay at 72 nM.

`COc1cc(N2CCC3(CCN(C(=O)c4ccc(Oc5ncccn5)cc4)CC3)C2=O)ccc1-c1cn[nH]c1` [Example 105, 2-[3-methoxy-4-(1H-pyrazol-4-yl)phenyl]-8-[4-(pyrimidin-2-yloxy)benzoyl]-2,8-diazaspiro[4.5]decan-1-one] showed an IC50 of 78 nM.

Consider `COc1cc(N2CCC3(CCN(C(=O)c4ccc(-n5cncn5)cc4)CC3)C2=O)ccc1-c1cn[nH]c1` [Example 106, 2-[3-methoxy-4-(1H-pyrazol-4-yl)phenyl]-8-[4-(1H-1,2,4-triazol-1-yl)benzoyl]-2,8-diazaspiro[4.5]decan-1-one], for which 25 nM corresponded to half-maximal inhibition (IC50).

On to `COc1cc(N2CCC3(CCN(C(=O)c4cc(C(F)(F)F)n(C)n4)CC3)C2=O)ccc1-c1cn[nH]c1` [Example 107, 2-[3-methoxy-4-(1H-pyrazol-4-yl)phenyl]-8-[1-methyl-S-(trifluoromethyl)-1H-pyrazole-3-carbonyl]-2,8-diazaspiro[4.5]decan-1-one], for which it took 67 nM to reach half-maximal inhibition (IC50).

In turn, `CCc1ccc(C(=O)N2CCC3(CC2)CCN(c2ccc(-c4cn[nH]c4)c(OC)c2)C3=O)nc1` [Example 108, 8-(5-ethylpyridine-2-carbonyl)-2-[3-methoxy-4-(1H-pyrazol-4-yl)phenyl]-2,8-diazaspiro[4.5]decan-1-one] registered an IC50 of 12 nM.

The molecule `COc1cc(N2CCC3(CCN(C(=O)c4cc(Cl)no4)CC3)C2=O)ccc1-c1cn[nH]c1` [Example 109, 8-(3-chloro-1,2-oxazole-5-carbonyl)-2-[3-methoxy-4-(1H-pyrazol-4-yl)phenyl]-2,8-diazaspiro[4.5]decan-1-one] yielded an IC50 of 362 nM.

For `COc1cc(N2CCC3(CCN(C(=O)c4cc(C(C)C)n[nH]4)CC3)C2=O)ccc1-c1cn[nH]c1` [Example 110, 2-[3-methoxy-4-(1H-pyrazol-4-yl)phenyl]-8-[3-(propan-2-yl)-1H-pyrazole-5-carbonyl]-2,8-diazaspiro[4.5]decan-1-one], the IC50 was found to be 34 nM.

Regarding `COc1cc(N2CCC3(CCN(C(=O)c4cc(C5CC5)n[nH]4)CC3)C2=O)ccc1-c1cn[nH]c1` [Example 111, 8-(3-cyclopropyl-1H-pyrazole-5-carbonyl)-2-[3-methoxy-4-(1H-pyrazol-4-yl)phenyl]-2,8-diazaspiro[4.5]decan-1-one], it took 17 nM to reach half-maximal inhibition (IC50).

Turning to `COc1cc(N2CCC3(CCN(C(=O)c4ccc(Oc5ccc(Cl)cc5)cc4)CC3)C2=O)ccc1-c1cn[nH]c1` [Example 112, 8-[4-(4-chlorophenoxy)benzoyl]-2-[3-methoxy-4-(1H-pyrazol-4-yl)phenyl]-2,8-diazaspiro[4.5]decan-1-one], the IC50 was 39 nM. This IC50 lies about 2.3-fold higher than the previous one.

As for `COc1ccc(-c2cc(C(=O)N3CCC4(CC3)CCN(c3ccc(-c5cn[nH]c5)c(OC)c3)C4=O)on2)cc1` [Example 113, 2-[3-methoxy-4-(1H-pyrazol-4-yl)phenyl]-8-[3-(4-methoxyphenyl)-1,2-oxazole-5-carbonyl]-2,8-diazaspiro[4.5]decan-1-one], inhibition was half-maximal at 17 nM (IC50).

With `COc1cc(N2CCC3(CCN(C(=O)c4cc5n(n4)CCNC5=O)CC3)C2=O)ccc1-c1cn[nH]c1` [Example 114, 2-[3-methoxy-4-(1H-pyrazol-4-yl)phenyl]-8-{4-oxo-4H,5H,6H,7H-pyrazolo[1,5-a]pyrazine-2-carbonyl}-2,8-diazaspiro[4.5]decan-1-one], inhibition was half-maximal at 6 nM (IC50).

`COc1cc(N2CCC3(CCN(C(=O)c4cnc(Cl)cn4)CC3)C2=O)ccc1-c1cn[nH]c1` [Example 115, 8-(5-chloropyrazine-2-carbonyl)-2-[3-methoxy-4-(1H-pyrazol-4-yl)phenyl]-2,8-diazaspiro[4.5]decan-1-one]: the IC50 stood at 200 nM.

In turn, `COc1cc(N2CCC3(CCN(C(=O)c4ncc(Br)cn4)CC3)C2=O)ccc1-c1cn[nH]c1` [Example 116, 8-(5-bromopyrimidine-2-carbonyl)-2-[3-methoxy-4-(1H-pyrazol-4-yl)phenyl]-2,8-diazaspiro[4.5]decan-1-one] came in with an IC50 of 88 nM.

Take `COc1cc(N2CCC3(CCN(C(=O)c4ccc(-n5ccccc5=O)cc4)CC3)C2=O)ccc1-c1cn[nH]c1` [Example 117, 2-[3-methoxy-4-(1H-pyrazol-4-yl)phenyl]-8-[4-(2-oxo-1,2-dihydropyridin-1-yl)benzoyl]-2,8-diazaspiro[4.5]decan-1-one]: 7 nM corresponded to half-maximal inhibition (IC50).

`COc1cc(N2CCC3(CCN(C(=O)c4ccc(-n5cnnn5)cc4)CC3)C2=O)ccc1-c1cn[nH]c1` [Example 118] gave an IC50 of 57 nM.

On to `COc1cc(N2CCC3(CCN(C(=O)c4ccc5oc(C)nc5c4)CC3)C2=O)ccc1-c1cn[nH]c1` [Example 119, 2-[3-methoxy-4-(1H-pyrazol-4-yl)phenyl]-8-(2-methyl-1,3-benzoxazole-5-carbonyl)-2,8-diazaspiro[4.5]decan-1-one], for which the IC50 came out at 70 nM. This IC50 and that of the molecule before are within 1.5-fold of each other.

For `COc1cc(N2CCC3(CCN(C(=O)c4ccc(N5CCN(C)CC5)cc4)CC3)C2=O)ccc1-c1cn[nH]c1` [Example 120, 2-[3-methoxy-4-(1H-pyrazol-4-yl)phenyl]-8-[4-(4-methylpiperazin-1-yl)benzoyl]-2,8-diazaspiro[4.5]decan-1-one], the IC50 was 0.3 nM.

Regarding `COc1cc(N2CCC3(CCN(C(=O)c4cnc(C)nc4)CC3)C2=O)ccc1-c1cn[nH]c1` [Example 121, 2-[3-methoxy-4-(1H-pyrazol-4-yl)phenyl]-8-(2-methylpyrimidine-5-carbonyl)-2,8-diazaspiro[4.5]decan-1-one], the IC50 stood at 585 nM. Against the preceding molecule, the IC50 is about 2000-fold higher.

Regarding `COc1ccc(C(=O)N2CCC3(CC2)CCN(c2ccc(-c4cn[nH]c4)c(OC)c2)C3=O)c(Cl)c1` [Example 122, 8-(2-chloro-4-methoxybenzoyl)-2-[3-methoxy-4-(1H-pyrazol-4-yl)phenyl]-2,8-diazaspiro[4.5]decan-1-one], half-maximal inhibition (IC50) required 11 nM.

As for `COc1cc(N2CCC3(CCN(C(=O)c4ccc(Cl)cn4)CC3)C2=O)ccc1-c1cn[nH]c1` [Example 123, 8-(5-chloropyridine-2-carbonyl)-2-[3-methoxy-4-(1H-pyrazol-4-yl)phenyl]-2,8-diazaspiro[4.5]decan-1-one], it took 65 nM to reach half-maximal inhibition (IC50). Compared with the last molecule, the IC50 is about 5.9-fold higher.

As for `COc1cc(N2CCC3(CCN(C(=O)c4ccc(-n5cccn5)cc4)CC3)C2=O)ccc1-c1cn[nH]c1` [Example 124, 2-[3-methoxy-4-(1H-pyrazol-4-yl)phenyl]-8-[4-(1H-pyrazol-1-yl)benzoyl]-2,8-diazaspiro[4.5]decan-1-one], the IC50 was 62 nM.

As to `COc1cc(N2CCC3(CCN(C(=O)c4nnc(-c5ccccn5)[nH]c4=O)CC3)C2=O)ccc1-c1cn[nH]c1` [Example 125, 2-[3-methoxy-4-(1H-pyrazol-4-yl)phenyl]-8-[5-oxo-3-(pyridin-2-yl)-4,5-dihydro-1,2,4-triazine-6-carbonyl]-2,8-diazaspiro[4.5]decan-1-one], the IC50 was 26 nM.

Take `COc1cc(N2CCC3(CCN(C(=O)c4ccc(N5CCCNC5=O)cc4)CC3)C2=O)ccc1-c1cn[nH]c1` [Example 126, 2-[3-methoxy-4-(1H-pyrazol-4-yl)phenyl]-8-[4-(2-oxo-1,3-diazinan-1-yl)benzoyl]-2,8-diazaspiro[4.5]decan-1-one]: the IC50 was found to be 7.7 nM.

In turn, `COc1cc(N2CCC3(CCN(C(=O)c4ccc(N5CCOCC5)c(F)c4)CC3)C2=O)ccc1-c1cn[nH]c1` [Example 127, 8-[3-fluoro-4-(morpholin-4-yl)benzoyl]-2-[3-methoxy-4-(1H-pyrazol-4-yl)phenyl]-2,8-diazaspiro[4.5]decan-1-one] showed a half-inhibitory concentration (IC50) of 11.2 nM. This IC50 and that of the molecule before are within 1.5-fold of each other.

Consider `COc1cc(N2CCC3(CCN(C(=O)c4ccc(N5CCCC5=O)cc4)CC3)C2=O)ccc1-c1cn[nH]c1` [Example 128, 2-[3-methoxy-4-(1H-pyrazol-4-yl)phenyl]-8-[4-(2-oxopyrrolidin-1-yl)benzoyl]-2,8-diazaspiro[4.5]decan-1-one], for which it took 13 nM to reach half-maximal inhibition (IC50).

In turn, `COc1cc(N2CCC3(CCN(C(=O)c4cc(=O)n5nnnc5[nH]4)CC3)C2=O)ccc1-c1cn[nH]c1` [Example 129, 2-[3-methoxy-4-(1H-pyrazol-4-yl)phenyl]-8-{7-oxo-4H,7H-[1,2,3,4]tetrazolo[1,5-a]pyrimidine-5-carbonyl}-2,8-diazaspiro[4.5]decan-1-one] showed an IC50 of 292 nM.

The molecule `COc1cc(N2CCC3(CCN(C(=O)c4ccc(N5CCNCC5)cc4)CC3)C2=O)ccc1-c1cn[nH]c1` [Example 130, 2-[3-methoxy-4-(1H-pyrazol-4-yl)phenyl]-8-[4-(piperazin-1-yl)benzoyl]-2,8-diazaspiro[4.5]decan-1-one] registered an IC50 of 0.4 nM.

Molecule `COc1cc(N2CCC3(CCN(C(=O)c4cn5[nH]c(=O)cc5nc4C)CC3)C2=O)ccc1-c1cn[nH]c1` [Example 131, 2-[3-methoxy-4-(1H-pyrazol-4-yl)phenyl]-8-{5-methyl-2-oxo-1H,2H-pyrazolo[1,5-a]pyrimidine-6-carbonyl}-2,8-diazaspiro[4.5]decan-1-one] returned an IC50 of 2090 nM.
